According to article PMC9804470, “A Formylglycine‐Peptide for the Site‐Directed Identification of Phosphotyrosine‐Mimetic Fragments” (Chemistry (Weinheim an Der Bergstrasse, Germany), 2022):
Read-outs that look alike come from different tables or passages of the source.

Key:
[1] = target: T1, catalytic domain of human SHP2 (Homo sapiens, UniProt Q06124); assay: Enzyme activity assay of SHP2 catalytic domain with fluorogenic substrate DiFMUP; type: biochemical
T1 construct: catalytic domain of human SHP2 (amino acids 225–541); His10 (N); made in house; host or cells: E. coli B21 (DE3)
T1 sequence (Q06124 225-541): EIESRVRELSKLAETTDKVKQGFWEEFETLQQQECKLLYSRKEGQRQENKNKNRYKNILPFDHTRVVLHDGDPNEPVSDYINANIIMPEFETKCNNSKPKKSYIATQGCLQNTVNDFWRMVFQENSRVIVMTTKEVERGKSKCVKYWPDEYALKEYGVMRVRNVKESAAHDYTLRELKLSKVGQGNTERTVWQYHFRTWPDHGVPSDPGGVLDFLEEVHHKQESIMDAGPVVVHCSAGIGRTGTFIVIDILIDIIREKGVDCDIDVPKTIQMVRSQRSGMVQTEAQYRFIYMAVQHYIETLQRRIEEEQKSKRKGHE
Protocol: Enzyme activity assays of SHP2 and PTP1B: The catalytic activity of SHP2 catalytic domain and PTP1B were monitored using the fluorogenic substrate DiFMUP (6,8‐difluoro‐4‐methylumbelliferyl phosphate). Phosphatase reactions were performed at room temperature in 384‐well black plate, clear flat bottom, low flange, non‐binding surface (Corning, Cat# 3766) using a final volume of 20 μL and the following assay buffer conditions: 50 mM MOPS, pH=6.5, 200 mM NaCl, 50 μM TCEP, 0.03 % Tween‐20 (freshly added prior to each measurement). Test compounds were dissolved in DMSO or buffer at stock concentrations of 50, 20 or 10 mM and serially diluted. Enzyme (5 nM PTP1B or 2.5 nM SHP2 catalytic domain) and different concentrations of the tested compounds were incubated in buffer for 30–60 min at room temperature. […] Enzymatic reactions were started by adding DiFMUP (Invitrogen, cat# D6567) concentrations matching the experimentally determined KM values of the enzymes of 67 μM (PTP1B) or 72 μM (SHP2). Samples were excited at a wavelength of 360 nm and emitted fluorescence was recorded at 460 for 10 min using a microplate reader (infinite M1000 Pro, Tecan). Initial slope of fluorescence was determined in triplicate and IC50 values were calculated with GraphPad Prism 5. Determined IC50 values were converted into the corresponding KI values applying the Cheng Prusoff equation KI =IC50 /(1+[S]/KM ).

[2] = tested on: HGF‐induced tyrosine phosphorylation of ERK 1/2 in HeLa cells; assay: Western blot of p-ERK in HGF-stimulated HeLa cells; type: cell-based; settings: 1 h treatment; for Concentration giving (complete) dephosphorylation of Erk / inhibition of Erk phosphorylation: HGF 20 ng/well, Western blot p-ERK
Protocol: Cellular experiments: HeLa cells were cultivated in DMEM buffer with 10 % FCS in 75 cm^2 cell culture flasks at 37 °C, 5 % CO2. At confluency of about 75 %, cells were seeded in a density of 250,000 cells/mL in 6‐well plates and incubated for 24 h. Subsequently, medium was removed and replaced by DMEM buffer with 0.1 % BSA (1 mL per well) and incubated for another 16 h. Hepatocyte growth factor (HGF, 20 ng/well) and test compounds in different final concentrations (1 μL, in DMSO) were added. Control wells received the same amount of DMSO (final concentration 0.1 %) or no addition. Plates were incubated for 1 h, then washed with cold PBS and shaken with lysis buffer (mPer reagent ThermoScientific # 78501 with 1 mM NaF, 2 mM Na3VO4, 25× protease inhibitor) for 5 min. Cell lysates were transferred to Eppendorf cups and centrifuged at 4 °C with 10,000 g for 10 min. […] The blot was incubated with anti‐phospo‐ERK as primary antibody (Cell Signaling # 9106, dilution 1 : 2000 in TBS‐Tween/ 2 % BSA) overnight at 4 °C, washed 3×5 min with TBS‐Tween, and incubated with anti‐mouse IgG‐hrp as secondary antibody (Santa Cruz # sc2031, 1 : 6000 in TBS‐ Tween/ 2 % BSA, RT, 1.5 h). The blot was again washed 3×5 min with TBS‐Tween and imaged with the ECL system (ThermoScientific # 34080) at Syngene PXi Imager. From the same lysis sample, under the same conditions, ERK 1/2 and β‐tubulin were blotted. For β‐tubulin, the antibody incubation time was adjusted to 2 h at RT.

PTP1B = target: T2, PTP1B (Homo sapiens, UniProt P18031); assay: Dynamic ligation screening of nucleophilic fragments with formylglycine peptide 3, PTP1B; type: biochemical; settings: 3 100 μM pre-incubated 5 min, fragment 200 μM, 30 min RT before DiFMUP, triplicates
T2 construct: catalytic domain of human PTP1B (amino acids 1–321); His7 (N, cleaved yes); made in house; host or cells: E. coli Rosetta (DE3)
T2 sequence (P18031 1-321): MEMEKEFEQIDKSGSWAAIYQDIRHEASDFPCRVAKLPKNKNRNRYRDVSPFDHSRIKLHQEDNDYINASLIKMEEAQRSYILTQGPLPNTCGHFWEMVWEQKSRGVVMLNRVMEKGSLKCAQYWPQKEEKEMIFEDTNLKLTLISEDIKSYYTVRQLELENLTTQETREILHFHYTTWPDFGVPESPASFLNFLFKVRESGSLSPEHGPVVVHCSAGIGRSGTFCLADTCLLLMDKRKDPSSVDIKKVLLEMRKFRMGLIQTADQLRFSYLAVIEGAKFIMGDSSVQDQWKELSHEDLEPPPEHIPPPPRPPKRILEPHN
Protocol: Enzyme activity assays of SHP2 and PTP1B: The catalytic activity of SHP2 catalytic domain and PTP1B were monitored using the fluorogenic substrate DiFMUP (6,8‐difluoro‐4‐methylumbelliferyl phosphate). Phosphatase reactions were performed at room temperature in 384‐well black plate, clear flat bottom, low flange, non‐binding surface (Corning, Cat# 3766) using a final volume of 20 μL and the following assay buffer conditions: 50 mM MOPS, pH=6.5, 200 mM NaCl, 50 μM TCEP, 0.03 % Tween‐20 (freshly added prior to each measurement). Test compounds were dissolved in DMSO or buffer at stock concentrations of 50, 20 or 10 mM and serially diluted. Enzyme (5 nM PTP1B or 2.5 nM SHP2 catalytic domain) and different concentrations of the tested compounds were incubated in buffer for 30–60 min at room temperature. Measurements were performed with a final concentration of 2.5 % DMSO unless stated otherwise at 37 °C and were performed in triplicate. Enzymatic reactions were started by adding DiFMUP (Invitrogen, cat# D6567) concentrations matching the experimentally determined KM values of the enzymes of 67 μM (PTP1B) or 72 μM (SHP2). Samples were excited at a wavelength of 360 nm and emitted fluorescence was recorded at 460 for 10 min using a microplate reader (infinite M1000 Pro, Tecan). Initial slope of fluorescence was determined in triplicate and IC50 values were calculated with GraphPad Prism 5. Determined IC50 values were converted into the corresponding KI values applying the Cheng Prusoff equation KI =IC50 /(1+[S]/KM ).
Dynamic ligation screening of nucleophilic fragments with 3: Under assay conditions described above, PTP1B or SHP2 were pre‐incubated with 3 (100 μM) for 5 min. Subsequently, (200 μM) of the respective fragments were added and the resulting mixtures were incubated for 30 min at RT, prior to DiFMUP addition.

| Compound | Enhancement of inhibition of PTP1B by fragment in combination with peptide 3 (fragment ligation assay) (PTP1B) | other results |
| --- | --- | --- |
| O=C1/C(=N\Nc2ccc(NS(=O)(=O)C(F)(F)F)cc2)C(c2ccc([N+](=O)[O-])cc2)=NN1c1ccc([N+](=O)[O-])cc1 [Compound 22] | – | Ki ([1]; DiFMUP 72 μM (= KM), enzyme 1.5 nM, triplicate, from IC50 by Cheng-Prusoff (IC50/2), read-out: KI SHP2 (Table 2, footnote a)): 5.9 µM; Effect on HGF‐induced tyrosine phosphorylation of ERK 1/2 ([2]; Western blot, DMSO control): decreased; Concentration giving (complete) dephosphorylation of Erk / inhibition of Erk phosphorylation [2]: 25 µM |
| O=C(O)COc1ccc(N/N=C2\C(=O)N(c3ccc([N+](=O)[O-])cc3)N=C2c2ccc([N+](=O)[O-])cc2)cc1 [Compound 23, (Z)‐2‐(4‐(2‐(1,3‐Bis‐(4‐nitrophenyl)‐5‐oxo‐1,5‐dihydro‐4H‐pyrazol‐4‐ylidene)‐hydrazinyl)‐phenoxy)‐acetic acid] | – | Ki ([1]; catalytic domain of SHP2, DiFMUP, from IC50 by Cheng-Prusoff, GS-493 sentence carries ref 26, read-out: KI SHP2): 0.275 µM; Concentration giving (complete) dephosphorylation of Erk / inhibition of Erk phosphorylation [2]: > 100 µM |
| Nc1ccc(C(=O)O)cc1 [Compound F5, 4‐amino benzoic acid] | inactive | – |
| Nc1ccc(C(F)(F)F)cc1 [Compound F8, 4‐amino‐phenyl‐trifluoromethane] | inactive | – |
| O=P(O)(O)C(F)(F)C1CCNCC1 [Compound F9, 4‐piperidinyl‐difluoromethyl phosphonate] | inactive | – |
| Nc1ccccc1 [aniline, reference compound] | entirely inactive | – |
| N‐(4‐aminophenyl)‐sulfonic acid [Compound F6] | inactive | – |
